Laboratory results: EP0958817A1, “COMPOSITION CONTAINING DIARYLALKANE DERIVATIVE AS THE ACTIVE INGREDIENT FOR TREATING OR PREVENTING PANCREATITIS” (SANKYO COMPANY LIMITED, priority 1996, dated 1998)
Structures can show the parent of a compound that is named as a salt.

Tests used:
[1] = test system: pancreatitis induced by choline-deficient ethionine supplemented diet; test: Inhibitory activity against pancreatitis induced by choline-deficient ethionine supplemented diet (CDE diet); serum amylase activity as index of pancreatitis; assay type: in vivo, ICR female mouse; settings: serum 64 h after start of CDE diet, twice a day, 6 times in total
Procedure: Pancreatitis of a mouse was induced by choline-deficient ethionine supplemented diet (CDE diet). A modified method of Lombardi et al [Lombardi et al, Am. J. Pathol., 79, 465-480 (1975)] was carried out. Briefly, the pancreatitis was induced by feeding an ICR female mouse (Charles River Japan, Inc. three-weeks old) choline deficient diet to which 0.5% (w/w) DL-ethionine was added (CDE diet). Sixty four hours after the feeding with the CDE diet, approximately 0.3 ml of the blood was collected from the heart of the mouse under anesthesia with ether. The collected blood was allowed to stand at room temperature for 2 hours to coagulate, followed by centrifugation (at 12,000 rpm for 10 minutes), to obtain serum. The amylase activity in the serum was measured by an amylase activity assay kit (Amylase B-Test Wako, product of Wako Pure Chemical Industries, Ltd.) and was designated as an index of pancreatitis. The test compound suspended in a 0.5% (w/v) tragacanth solution was administered to mice one hour before the feeding of the CDE diet and was administered twice a day, 6 times in total. The control group was fed with the CDE diet to induce pancreatitis but the test compounds were not administered to the control group. The normal group was not fed with the CDE diet but was fed with ordinary food.

[2] = test system: cerulein-induced pancreatitis; test: Inhibitory activity against cerulein-induced pancreatitis; serum amylase activity as index of pancreatitis; assay type: in vivo, Wistar rats; settings: Table 6, serum 3 h after final cerulein (20 µg/kg i.p., four times), control group 48.7
Procedure: Induction of experimental acute pancreatitis in rats was carried out by a modified method of Otsuki et al [Otsuki et al, Dig. Dis. Sci., 35, 242-250 (1990)]. Briefly, cerulein (20 µg/kg) was intraperitoneally administered to Wistar rats (Japan SLC, weight: about 200 g) every one hour, four times in total. Three hours after the final administration, the blood was collected from the jugular vein of the rat under anesthesia with ether. The collected blood was allowed to stand at room temperature for 2 hours to coagulate, followed by centrifugation (at 12,000 rpm for 10 minutes), to obtain serum. The amylase activity of the serum was measured using an amylase activity assay kit (Amylase B-Test Wako, product of Wako Pure Chemical Industries, Ltd.) and was designated as an index of pancreatitis. The test compound suspended in a 0.5% (w/v) tragacanth solution was orally administered 30 minutes before the first injection of the cerulein. The control group is defined as a group in which pancreatitis was induced, but to which the test compounds were not administered.

[3] = Table 4, dose 10 mg/kg, control group 64.7, normal group 6.6
[4] = Table 4, dose 30 mg/kg, control group 64.7, normal group 6.6

For `COc1cc(CCc2cc(F)ccc2OCC[C@@H]2C[C@@H](O)CN2C)ccc1F` [Preparation Example 2, (2R,4R)-2-[2-[4-Fluoro-2-[2-(4-fluoro-3-methoxypheny)ethyl]phenoxy]ethyl]-4-hydroxy-1-methylpyrrolidine hydrochloride], the Amylase activity [1, 3] was 53.7 IU/ml and the Amylase activity [1, 4] was 31.2 IU/ml.
Compound `CCCCCCCCCCCC(=O)O[C@@H]1C[C@@H](CCOc2ccccc2CCc2cccc(OC)c2)N(C)C1.Cl` [Preparation Example 3, (2R,4R)-4-Lauroyloxy-2-[2-[2-[2-(3-methoxyphenyl)ethyl]phenoxy]ethyl]-1-methylpyrrolidine hydrochloride] has an Amylase activity ([1]; Table 3, dose 10 mg/kg, control group 71.7, normal group 7.4) of 35.0 IU/ml, an Amylase activity ([1]; Table 3, dose 30 mg/kg, control group 71.7, normal group 7.4) of 32.1 IU/ml and an Amylase activity ([2]; dose 10 mg/kg orally 30 minutes before first cerulein) of 43.6 IU/ml. The Amylase activity ([2]; dose 30 mg/kg orally 30 minutes before first cerulein) was 34.9 IU/ml and the Amylase activity ([2]; dose 100 mg/kg orally 30 minutes before first cerulein) was 31.7 IU/ml.
`COc1cc(CCc2ccccc2OCC[C@@H]2C[C@@H](O)CN2C)ccc1F.Cl` [Preparation Example 4, (2R,4R)-2-[2-[2-[2-(4-Fluoro-3-methoxyphenyl)ethyl]phenoxy]ethyl]-4-hydroxy-1-methylpyrrolidine hydrochloride] gave an Amylase activity [1, 3] of 48.4 IU/ml and an Amylase activity [1, 4] of 30.5 IU/ml.
Work on `COc1cccc(CCc2ccccc2OCC[C@@H]2C[C@@H](O)CN2C)c1.Cl` [Preparation Example 18, (2R,4R)-4-Hydroxy-2-[2-[2-[2-(3-methoxyphenyl)ethyl]phenoxy]ethyl]-1-methylpyrrolidine hydrochloride] yielded an Amylase activity ([1]; Table 5, dose 10 mg/kg, control group 48.0, normal group 8.7) of 25.7 IU/ml and an Amylase activity ([1]; Table 5, dose 30 mg/kg, control group 48.0, normal group 8.7) of 21.8 IU/ml.
